Earlier results on 1 compound are cited in US20120071554A1, “DEUTERATED 2-PROPYLPENTANOIC ACID COMPOUNDS” (priority 2008, published 2012).

As for `CCCC(CCC)C(=O)O` [Valproate, sodium hydrogen bis(2-propylpentanoate)], where the note is “adult patients on monotherapy”, the “administered dose excreted in the urine as the glucuronide conjugate” value is on record as 30-50%, the “dose excreted as products of other oxidative mechanisms” value is 15-20% and the “dose excreted as the products of mitochondrial beta-oxidation” value is “over 40%”. Besides, the “dose excreted unchanged in the urine” value (in vivo) is “Less than 3%”. In addition, where the note is “pediatric patients co-dosed with valproate and aspirin, inhibition of beta-oxidation pathway”, the “increase of the valproate free-fraction” value is given as 4 fold.
